Bridge positions count the residues as written; N and C are the ends. Ends that are not written are not given here.
Legend:
[1] = test system: isolated, perfused guinea pig lung; assay: Vasoconstrictor (agonist) activity, isolated perfused lung preparation, pulmonary artery pressure
Method: Isolated, Perfused Guinea Pig Lung: Another procedure for determining the vasoconstrictor action of the endothelin-active peptides and the blocking action of endothelin antagonists utilizes isolated, perfused guinea pig lung as described in more detail in Example 4, infra.
(§1) The vasoconstrictor activity of Et-1 or Et-3 alone, or in the presence of antagonist, was determined using an isolated, perfused lung preparation (Horgan, M. J., et al. J. Appl. Phsysiol., 63, 93-104 (1987)). Briefly, Hartley guinea pigs (400-500 g) of either sex were anesthetized with 50 mg/kg pentobarbital sodium. Following a tracheotomy, the thorax was opened, the lung and heart excised and the pulmonary artery cannulated. A wide cannula was placed in the left atrium. Perfusion was then started, within 5 min. of opening the thorax. The perfusion flow was set at 28 ml/min. When there was no visible sign of blood in the pulmonary venous effluent, recirculation of the perfusate was started, and pulmonary artery pressure was monitored. Endothelin activity was measured in an accumulative dose-dependent manner for agonist activity by addition of the peptides to a recirculating 300 ml bath. To assess antagonist activity, dose response curves with endothelin were done in the constant presence of antagonist.

[2] = test system: vascular beds; details: a number of vascular beds; Anggard et al.; cited from earlier work
[3] = literature reports; cited from earlier work
[4] = test system: Et-1 receptor; details: competitive and dose dependent manner; Fabregat et al.; cited from earlier work
[5] = test system: endothelin responses; details: Fabregat et al.; cited from earlier work
[6] = test system: Et-1 in Perfused Guinea Pig Lung; assay: Antagonist activity against Et-1 in perfused guinea pig lung; details: for Pressure Increase Inhibition / Pressure Increase Ppa With Antagonist: antagonist 10^-7 M; for Pressure Increase Ppa With Antagonist: preperfused 5 min then coperfused
Method: as §1
The response with lungs preperfused, for 5 min. with [drawing 44] at a concentration of 10^-7 M before coperfusion with Et-1 was compared with the response determined on lungs perfused only with Et-1. (Results in both Tables 1 and 2 are based on the average of 4-7 determinations for each result).

[7] = test system: Et-3 in perfused guinea pig lung; assay: Specificity: lung preparations perfused with Et-3, with and without antagonist
Method: as §1
(§2) Specificity of [drawing 47] is illustrated in Table 2 which presents pressure increase data in similar lung preparations perfused with Et-3 and with other vasoconstrictor substances (alpha-thrombin and norepinephrine). As for the results shown in Table 1, pressure increase was determined on lung preparations with and without a 5 minute preperfusion step with 10^-7 M [drawing 48]

[8] = test system: alpha-thrombin in perfused guinea pig lung; assay: Specificity: lung preparations perfused with alpha-thrombin, with and without antagonist; details: α-Thrombin (10^-8 M); 5 minute preperfusion with 10^-7 M antagonist
Method: as §1, §2

[9] = test system: norepinephrine in perfused guinea pig lung; assay: Specificity: lung preparations perfused with norepinephrine, with and without antagonist; details: Norepinephrine (10^-7 M); 5 minute preperfusion with 10^-7 M antagonist
Method: as §1, §2

[10] = molecular target: endothelin receptors of the isolated, perfused guinea pig lung
[11] = molecular target: endothelin receptors of the isolated, perfused guinea pig lung; remark: listed apart in the source
[12] = isolated, perfused guinea pig lung

[Dpr^1 -Asp^15 ]Et-1, sequence (peptide): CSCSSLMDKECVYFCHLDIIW

Molecule: CC[C@H](C)[C@H](NC(=O)[C@H](CC(=O)O)NC(=O)[C@H](CC(C)C)NC(=O)[C@H](Cc1c[nH]cn1)NC(=O)[C@@H]1CSSC[C@H](N)C(=O)N[C@@H](CO)C(=O)N[C@H]2CSSC[C@H](NC(=O)[C@H](CCC(=O)O)NC(=O)[C@H](CCCCN)NC(=O)[C@H](CC(=O)O)NC(=O)[C@H](CCSC)NC(=O)[C@H](CC(C)C)NC(=O)[C@H](CO)NC(=O)[C@H](CO)NC2=O)C(=O)N[C@@H](C(C)C)C(=O)N[C@@H](Cc2ccc(O)cc2)C(=O)N[C@@H](Cc2ccccc2)C(=O)N1)C(=O)N[C@H](C(=O)N[C@@H](Cc1c[nH]c2ccccc12)C(=O)O)[C@@H](C)CC [Et-1]
- Pressure Increase Ppa Without Antagonist ([1]; Et-1 Conc. 2 × 10^-10 M): 2.3 cm H2 O
- Pressure Increase Ppa Without Antagonist ([1]; Et-1 Conc. 10^-9 M): 6.1 cm H2 O
- Pressure Increase Ppa Without Antagonist ([1]; Et-1 Conc. 10^-10 M): 1.2 cm H2 O
- concentration at which Et-1 is active (dose-dependent increase in pulmonary artery pressure, Ppa) [1, 12]: 10^-10 M
- concentration giving a maximal response (increase in Ppa) [1, 12]: 10^-8 M
- apparent potency order of vasoconstriction [2]: Et-2>Et-1>Et-3

Molecule: NC[C@H](O)c1ccc(O)c(O)c1 [Norepinephrine]
- Ppa Without antagonist ([1]; Norepinephrine (10^-7 M)): 1.3 cm H2 O

Molecule: Et-2: endothelin isopeptide (CSCSSWLDKECVYFCHLDIIW; ends and bridges not checked; cysteine pairing not given here; UniProt P20800 49-69, looked up)
- apparent potency order of vasoconstriction [2]: Et-2>Et-1>Et-3

Molecule: [Ala^3,11 ]Et-1: known Et-1 analog (Randall et al.) (CSASSLMDKEAVYFCHLDIIW; ends and bridges not checked; cysteine pairing not given here; UniProt P05305 53-73, looked up, variant C3A C11A)
- endothelin activity [3]: shows endothelin activity

Molecule: [Ala^4 ]Et-1: known Et-1 analog (Nakajima et al.) (CSCASLMDKECVYFCHLDIIW; ends and bridges not checked; cysteine pairing not given here; UniProt P05305 53-73, looked up, variant S4A)
- endothelin activity [3]: show appreciable endothelin activity

Molecule: [Ala^5 ]Et-1: known Et-1 analog (Nakajima et al.)
- endothelin activity [3]: show appreciable endothelin activity

Molecule: [Asn^8 ]Et-1: known Et-1 analog (Nakajima et al.) (CSCSSLMNKECVYFCHLDIIW; ends and bridges not checked; cysteine pairing not given here; UniProt P05305 53-73, looked up, variant D8N)
- endothelin activity [3]: show appreciable endothelin activity

Molecule: [D-Arg^1, D-Phe^5, D-Trp^7,9, Leu^11 ] substance P
- inhibition of ^125 I-labelled Et-1 binding to an Et-1 receptor [4]: able to inhibit
- blocking of endothelin responses [5]: blocks certain endothelin responses

Molecule: [Dpr^1 -Asp^15 ]Et-1
- agonist activity (increase in Ppa) ([1]; doses as high as 1×10^-6 M): essentially no agonist activity
- Pressure Increase Inhibition ([6]; Et-1 2 × 10^-10 M): 75%
- Pressure Increase Ppa With Antagonist ([6]; Et-1 2 × 10^-10 M): 0.6 cm H2 O
- Pressure Increase Inhibition ([6]; Et-1 10^-9 M): 65%
- Pressure Increase Ppa With Antagonist ([6]; Et-1 10^-9 M): 2.1 cm H2 O
- Pressure Increase Inhibition ([6]; Et-1 10^-10 M): 95%
- Pressure Increase Ppa With Antagonist ([6]; Et-1 10^-10 M): 0.06 cm H2 O
- blocking activity at higher doses of the analog ([6]; doses higher than 10^-7 M): did not substantially increase this blocking activity
- Ppa With antagonist ([7]; Et-3 (10^-9 M), 5 minute preperfusion with 10^-7 M antagonist): 5.8 cm H2 O
- antagonist activity against vasoconstricting substances other than Et-1 ([7]; lung preparations treated with Et-3, α-thrombin or norepinephrine): no antagonist activity
- Ppa With antagonist [8]: 8.5 cm H2 O
- Ppa With antagonist [9]: 1.3 cm H2 O

Molecule: [Dpr^1 -Asp^15 ]Et-1 (peptide)
- Pressure Increase Inhibition (%) of the Et-1 response, lung preperfused and coperfused with 10^-7 M antagonist [10]: 95%

Molecule: [Gly^6 ]Et-1: known Et-1 analog (Nakajima et al.) (CSCSSGMDKECVYFCHLDIIW; ends and bridges not checked; cysteine pairing not given here; UniProt P05305 53-73, looked up, variant L6G)
- endothelin activity [3]: show appreciable endothelin activity

Molecule: [Leu^9 ]Et-1: known Et-1 analog (Nakajima et al.) (CSCSSLMDLECVYFCHLDIIW; ends and bridges not checked; cysteine pairing not given here; UniProt P05305 53-73, looked up, variant K9L)
- endothelin activity [3]: show appreciable endothelin activity

Molecule: [Phe^13 ]Et-1: known Et-1 analog (Nakajima et al.) (CSCSSLMDKECVFFCHLDIIW; ends and bridges not checked; cysteine pairing not given here; UniProt P05305 53-73, looked up, variant Y13F)
- endothelin activity [3]: show appreciable endothelin activity

Molecule: [Phe^21 ]Et-1: known Et-1 analog (Nakajima et al.) (CSCSSLMDKECVYFCHLDIIF; ends and bridges not checked; cysteine pairing not given here; UniProt P05305 53-73, looked up, variant W21F)
- endothelin activity [3]: show appreciable endothelin activity

Molecule: [Tyr^21 ]Et-1: known Et-1 analog (Nakajima et al.) (CSCSSLMDKECVYFCHLDIIY; ends and bridges not checked; cysteine pairing not given here; UniProt P05305 53-73, looked up, variant W21Y)
- endothelin activity [3]: show appreciable endothelin activity

Molecule: CTCFTYKDKECVYYCHLDIIW (disulfide 1-15, 3-11) [Endothelin 3]
- Ppa (cm H2O), isolated perfused guinea pig lung, Et-3 at 10^-9 M without antagonist [11]: 3.8 cm H2O
